The record followed here is US20250170158A1, “METHODS OF TREATING MEDICAL CONDITIONS USING CENSAVUDINE OR A RELATED COMPOUND” (ROME Therapeutics, Inc., priority 2022, published 2025).

Entries after “also recorded” stand apart in the source; their conditions may differ.

In series [1] the target is T1, HERV-K reverse transcriptase (Homo sapiens, UniProt V9H0F6).
T1 construct: fused on or other part: C-terminal 8His tag
Nature of the series: Homogeneous time-resolved fluorescence (HTRF) HERV-K RT assay. The settings on record: HERV-K reverse transcriptase (2-596)-8His protein, read-out: IC50, inhibition of HERV-K reverse transcriptase. It counts as biochemical. As to the method:
The HERV-K reverse transcriptase homogeneous time-resolved fluorescence (HTRF) assay was performed in a 384-well format with HERV-K reverse transcriptase (2-596)-8His protein. Baculoviruses were created using Bac-to-Bac technology (Invitrogen). pFastBac donor plasmids containing HERV-K reverse transcriptase sequence (NCBI GenBank number AAC63291.1, J. Virology (1999) Vol. 73, No. 3, pp. 2365-2375) were transformed into DH10 Bac cells following the manufacturer's instructions. Recombinant bacmids were then isolated clonally and transfected into SF9 cells with lipofectin. HERV-K reverse transcriptase was expressed in the SF9 insect cells and then purified using immobilized metal affinity chromatography (IMAC) followed by size-exclusion chromatography (SEC). Test compound was serially diluted in DMSO and further diluted in the assay buffer (50 mM Tris-HCl, 50 mM KCl, 10 mM MgCl2, 10 mM DTT, pH 8.1) to achieve a final DMSO concentration of 1%. […] At the end of the incubation, fluorescence was read at ex/em=337/485 nm and ex/em=337/520 nm on an Envision 2104 plate reader (Perkin Elmer). The fluorescence ratio at 520/485 nm was used for the calculation. […] The IC50 was calculated by fitting the compound dose inhibition curve with a 4-parameter non-linear regression equation.

For series [2], the target named is T2, LINE1 reverse transcriptase (Homo sapiens, UniProt O00370). Nature of the series: Homogeneous time-resolved fluorescence (HTRF) LINE1 RT assay. The series is classed as biochemical. Also on record: recombinant MBP-tagged LINE1 protein (238-1061); MBP; made in house. The settings on record: recombinant MBP-tagged LINE1 protein (238-1061), read-out: IC50, inhibition of LINE1 reverse transcriptase. As to the method: The LINE1 reverse transcriptase homogeneous time-resolved fluorescence (HTRF) assay was performed with recombinant MBP-tagged LINE1 protein (238-1061) (generated and purified according to procedures in Dai L. et al. BMC Biochemistry 2011; 12:18) in a 384-well format. Test compound was serially diluted in DMSO and further diluted in the assay buffer (50 mM Tris-HCl, 50 mM KCl, 10 mM MgCl2, 10 mM DTT, pH 8.1) to achieve a final DMSO concentration of 1%. The serially diluted compound was mixed with 64 ng/well of LINE1 enzyme, 5 nM of pre-annealed template/biotin-primer pair (synthesized at Generay Biotechnology), 10 nM of Fluorescein-12-dATP fluorescent probe (Perkin Elmer), and 1 μM dGTP/dCTP/dTTP (Thermo Fisher Scientific) in the assay buffer. The template/biotin-primer sequences were as follows:
After incubating at 25° C. for 60 minutes, the detection reagent (20 mM EDTA with streptavidin-terbium cryptate, Cisbio Bioassay) in the PPI buffer (Cisbio Bioassay) was added, and the mixture was incubated at 25° C. for 30 minutes. At the end of the incubation, fluorescence was read at ex/em=337/485 nm and ex/em=337/520 nm on an Envision 2104 plate reader (Perkin Elmer). The fluorescence ratio at 520/485 nm was used for the calculation. […] The IC50 was calculated by fitting the compound dose inhibition curve with a 4-parameter non-linear regression equation.
(In general: In TR-FRET formats the signal depends on donor and acceptor labels being close together.)

Series [3] concerns IL-17A, IFN, TNF. In words: Mouse MOG study: lymph node cell culture and CBA cytokine analysis. The series is classed as in vivo, C57BL mice. As to the method: (§1) On day zero, four groups of six C57BL mice were immunized subcutaneously at 2 sites with 0.1 mL/site with MOG35-55/CFA (Hooke immunization kit). Dosing of mice started on day 0 and continued through day 11. The dosing schedule was:
(§2) The Vehicle used was 0.5% methylcellulose. Mice were dosed each day at approximately the same time each day. One day 11, 1 hour after receiving the last dose, plasma was collected, frozen and stored at −80° C. for analysis. At the end of the experiment, all mice were euthanized, and inguinal lymph nodes were collected and processed.
Lymph node cells from each group were set up in 96-well plates with 400k cells/well along with seven concentrations of antigen: 0, 0.07 μg/mL, 0.2 μg/mL, 0.7 μg/mL, 2.2 μg/mL, 6.6 μg/mL and 20.0 μg/mL. After 72 hours of culturing, the supernatants were collected and analyzed for IL-17A, IFN […] , and TNF using CBA kits (Becton-Dickinson).

The subject of series [4] is CD4+ T cells. In words: Mouse MOG study: BrdU cell proliferation assay on lymph node cells. The series is classed as in vivo, C57BL mice. On the procedure: as §1, §2
A bromodeoxyuridine (BrdU) cell proliferation assay was run on some of the lymph node cells to determine if treatment of mice with censavudine altered the proliferation of CD4+ T cells in culture upon restimulation with antigen. Cultures of the cells were set up in 96-well plates, each using 400k cells/well along with six concentrations of antigen: 0, 0.2 μg/mL, 0.7 μg/mL, 2.2 μg/mL, 6.6 μg/mL and 20.0 μg/mL, each with duplicates. The cells were cultured for approximately 40 hours, then BrdU was added to all wells at a concentration of 3 μg/mL. The cells were cultured an additional 3 hours after the addition of BrdU. Cells were then collected, stained with anti-CD4 and anti-BrdU antibodies (as per Becton Dickinson's standard protocols for BrdU labeling) and analyzed.

Series [5] concerns THP1-Dual KO-TREX1 cells.
The test system of series [6] is Type 1 Interferon. In words: Cellular assay for inhibiting IFN production in THP1 TREX1 KO cells. The series is classed as cell-based. The settings on record: THP1-Dual KO-TREX1 cells, six days of treatment, alone or with 1 μM 5-Aza-2'-Deoxycytidine; FIG. 2. On the procedure:
THP1 Dual TREX1 KO cells were purchased from Invivogen.
Stock solution of censavudine was prepared in DMSO followed by a three-fold dilution in DMSO. Additional 50× dilution was prepared in cell culture media for each dilution. 10 μL of diluted censavudine was then added to a 96 well plate.
THP1-Dual™ KO-TREX1 cells were treated with either 1×PBS or 1 μM 5-Aza-2′-Deoxycytidine. 190 μL of the THP1-Dual™ KO-TREX1 cells from either treatment were added to each well of the 96-well plate containing censavudine titration at 50,000 cells/well. Cells were incubated at 37° C., 5% CO2 in a humidified incubator for six days. Cells treated with 1 μM 5-Aza-2′-Deoxycytidine were added at the same density as above and incubated at 37° C., 5% CO2 in a humidified incubator for six days. On day six, 25 μL of cell supernatant was transferred to a 96 well white-walled plate, followed by addition of 50 μL of QUANTI-LUC solution containing stabilizer to each well.

Series [7] concerns the target T2, LINE1 reverse transcriptase. Nature of the series: Stable artificial-intron Cis LINE1 reporter assay. The series is classed as cell-based. More on the design: expressed in transfected cells. The settings on record: HeLa L1 artificial-intron reporter cells, doxycycline induced, 72 h, Firefly luciferase; read-out: IC50, inhibition of LINE1 reverse transcriptase. From the text:
A stable HeLa Tet-On 3G (Takara, cat no 631183) cell line expressing a bi-directional inducible LINE1 construct was generated as described in Xie, Y. et al. “Cell division promotes efficient retrotransposition in a stable L1 reporter cell line,” Mobile DNA (2013) 4:10. Single cell clones were screened for high Luciferase expression and the highest expression Firefly expressing clone was chosen for compound testing.
Test compound was serially diluted in DMSO and spotted in 96-well plates. Subsequently the HeLa L1 artifical-intron reporter cells were plated into the compound-containing wells (8,000 cells/well), and the cells were induced for reporter expression with doxycycline (Sigma cat no D9891) at a final concentration of 500 ng/mL. Luminescence was measured 72 h after plating using the Dual-Glo Luciferase Assay System (Promega cat no E2940) following the manufacturer's instructions. The Firefly Luciferase activity was used to report LINE1 activity.

For series [8] the target is unchanged. Nature of the series: Transient artificial-intron Cis LINE1 reporter assay. The series is classed as cell-based. The settings on record: HEK 293 cells; ratio of FLuc to RLuc reports LINE1 activity; read-out: IC50, inhibition of FLuc (FF/RR). Also on record: expressed in transfected cells. As to the method: Intron-disrupted Firefly luciferase (FLuc) expression cassettes were generated as described by Xie, Y. et al. “Characterization of L1 retrotransposition with high-throughput dual-luciferase assays,” Nucleic Acid Res. (2011) Vol. 39, No. 3, e16. In addition, the plasmid contained an intact Renilla luciferase (RLuc) expression cassette on the vector backbone, in order to normalize transfection efficiency and measure potential cell toxicity.
HEK 293 cells were seeded in 96-well plates at 1,000 cells/well in 55 μL and grown for 24 hours. Cells were transfected with FuGeneHD (Promega) following the manufacturer's protocol. Each well received 0.133 ng plasmid, 0.4 μL FuGeneHD reagent, and 4.5 μL GlutaMAX-I-supplemented Opti-MEM I reduced-serum medium (Invitrogen). Cells were simultaneously treated with test compound serially diluted starting at 100 μM in a 3-fold dilution dose response.
Luminescence was measured using the Dual-Glo Luciferase Assay System (Promega) following the manufacturer's instructions. The ratio between FLuc and RLuc gene expression was used to report LINE1 activity.

T1 sequence (V9H0F6 entry or part of it): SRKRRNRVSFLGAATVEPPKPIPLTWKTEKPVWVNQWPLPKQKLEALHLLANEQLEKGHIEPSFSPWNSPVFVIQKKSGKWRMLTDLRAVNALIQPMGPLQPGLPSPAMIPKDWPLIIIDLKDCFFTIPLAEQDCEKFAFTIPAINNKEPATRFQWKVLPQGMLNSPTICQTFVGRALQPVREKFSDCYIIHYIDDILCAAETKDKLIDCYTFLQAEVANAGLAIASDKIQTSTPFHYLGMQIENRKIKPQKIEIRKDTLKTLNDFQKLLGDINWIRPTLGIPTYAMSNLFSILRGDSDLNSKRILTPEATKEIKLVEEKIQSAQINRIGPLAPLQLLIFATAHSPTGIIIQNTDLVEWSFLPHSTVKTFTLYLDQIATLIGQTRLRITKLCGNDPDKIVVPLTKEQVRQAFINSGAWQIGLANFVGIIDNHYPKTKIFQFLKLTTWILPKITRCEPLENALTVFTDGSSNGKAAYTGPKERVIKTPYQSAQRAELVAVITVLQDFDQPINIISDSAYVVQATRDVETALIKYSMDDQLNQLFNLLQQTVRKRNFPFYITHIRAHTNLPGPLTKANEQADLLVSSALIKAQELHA

With `C#C[C@@]1(COP(=O)(O)OP(=O)(O)OP(=O)(O)O)C=C[C@H](n2cc(C)c(=O)[nH]c2=O)O1`, the IC50 in series [1] amounted to 6400 nM; in series [2], 70 nM.

As to `C#C[C@@]1(CO)C=C[C@H](n2cc(C)c(=O)[nH]c2=O)O1` [censavudine, 1-[(2R,5R)-5-ethynyl-5-(hydroxymethyl)-2H-furan-2-yl]-5-methylpyrimidine-2,4-dione], the IL-17A level result in series [3] (MOG35-55/CFA immunized mice, QD p.o. day 0-11, lymph node cells restimulated with antigen 72 h, FIG. 4A) is listed as “reduce levels; also recorded: reduction of IL17A”. Moreover, the TNF level entry in series [3] (MOG35-55/CFA immunized mice, QD p.o. day 0-11, lymph node cells restimulated with antigen 72 h, FIG. 4B) is “reduce levels; also recorded: reduction of TNF”. In addition, the IFN level result in series [3] (MOG35-55/CFA immunized mice, QD p.o. day 0-11, lymph node cells restimulated with antigen 72 h, FIG. 4C) is recorded as “reduce levels; also recorded: reduction of IFN”. Further, the “proinflammatory cytokines (IL17A, TNF, IFN), effect” value in series [3] (all doses (8, 40, 200 mg/kg QD p.o.), FIGS. 4A-4C) is recorded as “some effect”. Also, the “proinflammatory cytokines (IL17A, TNF, IFN), response” value in series [3] (doses of 40 mg/kg and 200 mg/kg, FIGS. 4A-4C) is on record as “best responses”. Also, the T cell proliferation entry in series [4] (MOG immunized mice, QD p.o. day 0-11, lymph node cells restimulated with antigen, BrdU, FIG. 3A) is “reduce levels; also recorded: reduction of T-cell proliferation”. Besides, in series [4] (MOG immunized mice, various doses QD p.o., FIG. 3B), the “Th17 (T17)” value is “reduce levels; also recorded: reduction of the cytokine Th17”. Moreover, the “Th1 (T1)” value in series [4] (MOG immunized mice, various doses QD p.o., FIG. 3C) is reported as “reduce levels; also recorded: reduction of the cytokine Th1”. The “autoreactive T-cell responses” value in series [4] (doses between 40 mg/kg and 200 mg/kg, FIGS. 3A-3C) was “significant reduction”. Also, in series [5], the “cell viability / cell death” value is on record as “does not lead to cell death”. Also, in series [6], the “interferon (Type 1 Interferon reporter)” value was “significant reduction of interferon; also recorded: inhibition of interferon”.

As for `C#C[C@@]1(CO)C=C[C@H](n2cc(C)c(=O)[nH]c2=O)O1` [drawing 16], the IC50 in series [7] was determined as 130 nM; in series [8], 60 nM.
